For this series the following is noted: instrument: TW, calibrated with polyalanine and drug standards.

63 compounds from the C3SDB collision cross section collection can be followed below.

As to `CC(C)=CCCC1(C)C=Cc2c(O)c3c(c(CC=C(C)C)c2O1)OC12C(=CCCC1C(C)(C)O[C@@]2(C/C=C(\C)C(=O)O)C(=O)O)C3=O` (stereo partly drawn) [GARCINOLIC ACID], the “collision cross section (N2)” value ([M+H]+) turned out to be 245.7 Å².

As for `CC(=O)O[C@@H]1C[C@H]2C(C)(C)C(=O)C=C[C@]2(C)[C@H]2CC[C@@]3(C)[C@H](c4ccoc4)OC(=O)[C@H]4O[C@]43[C@@]21C` [GEDUNIN], the “collision cross section (N2)” value ([M+H]+) was 205.7 Å².

Take `O=c1c(-c2ccc(O)cc2)coc2cc(O)cc(O)c12` [GENISTEIN]: the “collision cross section (N2)” value ([M+H]+) came to 156.5 Å².

As for `O=C(OCC(O)CO)c1ccccc1Nc1ccnc2cc(Cl)ccc12` (stereo not drawn) [GLAFENINE], for the setting “[M+H]+”, the “collision cross section (N2)” value amounted to 187.3 Å².

On to `Cc1cnc(C(=O)NCCc2ccc(S(=O)(=O)NC(=O)NC3CCCCC3)cc2)cn1` [GLIPIZIDE], for which the “collision cross section (N2)” value ([M+H]+) turned out to be 196.5 Å².

On to `COc1ccc2c(c1)=NC1=C(C)NCCC=21` [HARMALINE], for which the “collision cross section (N2)” value ([M+H]+) is 146.2 Å².

Turning to `CC(=O)O[C@H]1CC[C@@]2(C)[C@@H](CC[C@@H]3[C@@H]2CC(=O)[C@]2(C)[C@@H]4[C@H](C[C@@H]32)O[C@]2(CC[C@@H](C)CO2)[C@H]4C)C1` [HECOGENIN ACETATE], the “collision cross section (N2)” value ([M+H]+) came out at 223.4 Å².

Take `C[C@@H]1O[C@@H](O[C@H]2[C@H](O[C@H]3CC[C@@]4(C)[C@@H](CC[C@]5(C)[C@@H]4CC=C4[C@@H]6CC(C)(C)CC[C@]6(C(=O)O[C@@H]6O[C@H](CO[C@@H]7O[C@H](CO)[C@@H](O[C@@H]8O[C@@H](C)[C@H](O)[C@@H](O)[C@H]8O)[C@H](O)[C@H]7O)[C@@H](O)[C@H](O)[C@H]6O)CC[C@]45C)[C@]3(C)CO)OC[C@H](O)[C@@H]2O)[C@H](O)[C@H](O)[C@H]1O` [HEDERACOSIDE C]: the “collision cross section (N2)” value ([M+H]+) came to 349.1 Å².

For `C=C1C(=O)O[C@@H]2C[C@@]3(C)CCC[C@H](C)C3=C[C@H]12` [HELENINE], the “collision cross section (N2)” value ([M+H]+) stood at 149.5 Å².

`O=C1C=C2CC3(O)COc4c(ccc(O)c4O)C3=C2C=C1O` (stereo not drawn) [HEMATEIN]: the “collision cross section (N2)” value ([M+H]+) stood at 162.5 Å².

For the compound `O=c1cc(-c2cc(O)c(O)c(O)c2)oc2cc(O)cc(O)c12` [HIERACIN], the “collision cross section (N2)” value ([M+H]+) was 163.4 Å².

Consider `C/C=C1\[C@H]2C=C(C)C[C@]1(N)c1ccc(=O)[nH]c1C2` [HUPERZINE A], for which the “collision cross section (N2)” value ([M+H]+) came to 157.7 Å².

For the compound `COc1ccc2c(c1OC)C(=O)O[C@@H]2[C@H]1c2cc3c(cc2CCN1C)OCO3` [HYDRASTINE (1R, 9S)], the “collision cross section (N2)” value ([M+H]+) was 186.3 Å².

Consider `CC(=O)OCC(=O)[C@@]1(O)CC[C@H]2[C@@H]3CCC4=CC(=O)CC[C@]4(C)[C@H]3[C@@H](O)C[C@@]21C` [HYDROCORTISONE ACETATE], for which the “collision cross section (N2)” value ([M+H]+) is recorded as 196.1 Å².

For the compound `CN1[C@@H]2CC[C@H]1CC(OC(=O)[C@H](CO)c1ccccc1)C2` (stereo partly drawn) [HYOSCYAMINE], where the note is “[M+H]+”, the “collision cross section (N2)” value was found to be 169.7 Å².

`CC1Cc2ccccc2N1NC(=O)c1ccc(Cl)c(S(N)(=O)=O)c1` (stereo not drawn) [INDAPAMIDE]: for the setting “[M+H]+”, the “collision cross section (N2)” value came to 184.6 Å².

As for `O=c1c(-c2cc(O)c(O)c(O)c2)coc2cc(O)c(O)c(O)c12` [IRIGENOL], the “collision cross section (N2)” value ([M+H]+) was 166.5 Å².

Regarding `CC(=O)OCC(=O)[C@@]1(O)CCC2C3CCC4=CC(=O)C=C[C@]4(C)[C@@]3(F)[C@@H](O)C[C@@]21C` (stereo partly drawn) [ISOFLUPREDNONE ACETATE], where the note is “[M+H]+”, the “collision cross section (N2)” value turned out to be 194.7 Å².

For `NNC(=O)c1ccncc1` [ISONIAZID], for the setting “[M+H]+”, the “collision cross section (N2)” value turned out to be 125.6 Å².

As for `COc1cc(O)ccc1C(C)=O` [ISOPEONOL], the “collision cross section (N2)” value ([M+H]+) is 128.6 Å².

In the case of `COc1c2ccoc2c(OC)c2oc(=O)ccc12` [ISOPIMPINELLIN], the “collision cross section (N2)” value ([M+H]+) amounted to 146.5 Å².

On to `COc1ccc(-c2coc3c(OC)c(OC)cc(O)c3c2=O)cc1` [ISOTECTORIGENIN, 7-METHYL ETHER], for which the “collision cross section (N2)” value ([M+H]+) is 171.9 Å².

In the case of `C=C(C)[C@H]1CN[C@H](C(=O)O)[C@H]1CC(=O)O` [KAINIC ACID], the “collision cross section (N2)” value ([M+H]+) is 144.2 Å².

For `CC1(C)C[C@@H]2C(=O)CC[C@H]3O[C@]3(C)CC[C@H]21` [KOBUSONE], the “collision cross section (N2)” value ([M+H]+) is 146.3 Å².

Regarding `COc1ccc(-c2coc3cc(O)ccc3c2=O)c(O)c1O` [KOPARIN], under “[M+H]+”, the “collision cross section (N2)” value is reported as 162.1 Å².

Turning to `COc1c(O)cc2c(-c3ccccc3)cc(=O)oc2c1OC` [KUHLMANNIN], the “collision cross section (N2)” value ([M+H]+) is 165.6 Å².

`CCCCS(=N)(=O)CC[C@H](N)C(=O)O` (stereo partly drawn) [L-BUTHIONINE SULFOXIMINE]: the “collision cross section (N2)” value ([M+H]+) is 146.1 Å².

Take `O=C(O)[C@H](O)[C@@H](O)[C@H](O[C@@H]1O[C@H](CO)[C@H](O)[C@H](O)[C@H]1O)[C@H](O)CO` [LACTOBIONIC ACID]: the “collision cross section (N2)” value ([M+H]+) was 168.7 Å².

For `C[C@@H]1CC[C@H]2[C@](C)(CO)[C@@H](O)CC[C@]2(C)[C@@]12CC[C@@](CO)(CCO)O2` [LAGOCHILIN], the “collision cross section (N2)” value ([M+H]+) is listed as 171.2 Å².

`Cc1occc(=O)c1O` [LARIXINIC ACID]: the “collision cross section (N2)” value ([M+H]+) came out at 117.7 Å².

`C=C[C@@](C)(O)CCC1C(=C)C[C@H](O)C2C(C)(C)CCCC12C` (stereo partly drawn) [LARIXOL]: the “collision cross section (N2)” value ([M+H]+) is listed as 176.2 Å².

Regarding `CC1=CC(=O)C2=C(C)CC[C@@H]3[C@H](OC(=O)[C@H]3C)[C@@H]12` [LEUCODIN], the “collision cross section (N2)” value ([M+H]+) is given as 154.2 Å².

In the case of `N[C@@H](Cc1ccc(O)c(O)c1)C(=O)O` [LEVODOPA], for the setting “[M+H]+”, the “collision cross section (N2)” value came to 145.4 Å².

For `CC(C)(C#N)O[C@@H]1O[C@H](CO)[C@@H](O)[C@H](O)[C@H]1O` [LINAMARIN], the “collision cross section (N2)” value ([M+Na]+) was determined as 157.3 Å².

Regarding `CCOC(=O)N1CCC(=C2c3ccc(Cl)cc3CCc3cccnc32)CC1` [LORATADINE], the “collision cross section (N2)” value ([M+H]+) was determined as 185.8 Å².

Regarding `CC[C@H](C)C(=O)O[C@H]1C[C@@H](C)C=C2C=C[C@H](C)[C@H](CC[C@@H]3C[C@@H](O)CC(=O)O3)[C@H]21` [LOVASTATIN], where the note is “[M+Na]+”, the “collision cross section (N2)” value is given as 202 Å².

For the compound `C=C1C[C@H]2[C@@H]3C=C(C)C4=CC(=O)CC[C@]4(C)[C@H]3CC[C@]2(C)[C@@]1(OC(C)=O)C(C)=O` [MELENGESTROL ACETATE], under “[M+H]+”, the “collision cross section (N2)” value is 198.2 Å².

In the case of `OC[C@H]1O[C@@](CO)(O[C@H]2O[C@H](CO)[C@@H](O)[C@H](O)[C@H]2O)[C@@H](O[C@H]2O[C@H](CO)[C@@H](O)[C@H](O)[C@H]2O)[C@@H]1O` [MELEZITOSE], for the setting “[M+Na]+”, the “collision cross section (N2)” value came to 199.2 Å².

Take `[O-][n+]1cccc(CO)c1` [MEPIROXOL]: the “collision cross section (N2)” value ([M+H]+) is 120.4 Å².

Turning to `Nc1ccc(O)c(C(=O)O)c1` [MESALAMINE], under “[M+H]+”, the “collision cross section (N2)” value came out at 134.7 Å².

For `CN1C[C@H](CNC(=O)OCc2ccccc2)C[C@@H]2c3cccc4c3c(cn4C)C[C@H]21` [METERGOLINE], for the setting “[M+H]+”, the “collision cross section (N2)” value is on record as 197.6 Å².

For the compound `C1N2CN3CN1CN(C2)C3` [METHENAMINE], under “[M+H]+”, the “collision cross section (N2)” value was 126.8 Å².

`COc1cc(C)c2c(=O)cc(-c3ccccc3)oc2c1` [METHOXYVONE]: for the setting “[M+H]+”, the “collision cross section (N2)” value amounted to 156.5 Å².

In the case of `COC(=O)CC[C@@H](C)[C@H]1CC[C@H]2[C@@H]3CC[C@@H]4C[C@H](O)CC[C@]4(C)[C@H]3C[C@H](O)[C@]12C` [METHYL DEOXYCHOLATE], the “collision cross section (N2)” value ([M+Na]+) came to 199.1 Å².

For the compound `Cc1cc(=O)[nH]c(=S)[nH]1` [METHYLTHIOURACIL], where the note is “[M+H]+”, the “collision cross section (N2)” value was found to be 123.7 Å².

In the case of `COc1cc(OC)c(C(C)=O)c(O)c1C` [METHYLXANTHOXYLIN], for the setting “[M+H]+”, the “collision cross section (N2)” value turned out to be 140.2 Å².

For the compound `Cc1cc2c(cc1S(N)(=O)=O)S(=O)(=O)CCC2` [METICRANE], the “collision cross section (N2)” value ([M+H]+) was 159.4 Å².

Regarding `Cc1ccccc1N1C(=O)c2cc(S(N)(=O)=O)c(Cl)cc2NC1C` (stereo not drawn) [METOLAZONE], the “collision cross section (N2)” value ([M+H]+) amounted to 181.2 Å².

In the case of `Cc1ncc([N+](=O)[O-])n1CCO` [METRONIDAZOLE], the “collision cross section (N2)” value ([M+H]+) stood at 130.4 Å².

As for `COC(=O)C[C@H]1C(C)(C)C(=O)[C@@H]2CC3=C4CC(=O)O[C@@H](c5ccoc5)[C@]4(C)CC[C@@H]3[C@@]1(C)C2=O` [MEXICANOLIDE], the “collision cross section (N2)” value ([M+H]+) was determined as 203.9 Å².

Turning to `COc1c(C)c2c(c(O)c1C/C=C(\C)CCC(=O)OCCN1CCOCC1)C(=O)OC2` [MYCOPHENOLATE MOFETIL], the “collision cross section (N2)” value ([M+H]+) was found to be 197.3 Å².

For `COc1c(C)c2c(c(O)c1C/C=C(\C)CCC(=O)O)C(=O)OC2` [MYCOPHENOLIC ACID], for the setting “[M+H]+”, the “collision cross section (N2)” value is on record as 165.4 Å².

As to `CC(=O)N[C@H]1C(O)O[C@H](CO)[C@@H](O)[C@@H]1O[C@H](C)C(=O)O` (stereo partly drawn) [N-ACETYLMURAMIC ACID], the “collision cross section (N2)” value ([M+Na]+) came to 164.8 Å².

In the case of `CC(=O)N[C@H]1[C@H]([C@H](O)[C@H](O)CO)O[C@](O)(C(=O)O)C[C@@H]1O` [N-ACETYLNEURAMIC ACID], for the setting “[M+Na]+”, the “collision cross section (N2)” value stood at 166.6 Å².

In the case of `CNc1ccccc1C(=O)O` [N-METHYLANTHRANILIC ACID], the “collision cross section (N2)” value ([M+H]+) is 125.9 Å².

Consider `CC(C)(C)NCC(O)COc1cccc2c1C[C@H](O)[C@H](O)C2` (stereo partly drawn) [NADOLOL], for which the “collision cross section (N2)” value ([M+H]+) is listed as 171.8 Å².

Turning to `CCn1cc(C(=O)O)c(=O)c2ccc(C)nc21` [NALIDIXIC ACID], the “collision cross section (N2)” value ([M+H]+) came out at 145.3 Å².

As for `NC(=O)c1cccnc1` [NIACINAMIDE], for the setting “[M+H]+”, the “collision cross section (N2)” value amounted to 121.7 Å².

As for `O=C(N/N=C/c1ccc([N+](=O)[O-])o1)c1ccc(O)cc1` [NIFUROXAZIDE], the “collision cross section (N2)” value ([M+H]+) amounted to 154.4 Å².

In the case of `Cc1ncc(CNC(=O)N(CCCl)N=O)c(N)n1` [NIMUSTINE], for the setting “[M+H]+”, the “collision cross section (N2)” value came out at 158.9 Å².

For `CCOC(=O)C1=C(C)NC(C)=C(C(=O)OC)C1c1cccc([N+](=O)[O-])c1` (stereo not drawn) [NITRENDIPINE], the “collision cross section (N2)” value ([M+H]+) worked out at 181.9 Å².

As for `NC(=O)N/N=C/c1ccc([N+](=O)[O-])o1` [NITROFURAZONE], the “collision cross section (N2)” value ([M+H]+) is 138.6 Å².

Take `CCCCCCCCCc1ccc(OCCOCCOCCOCCOCCOCCOCCOCCOCCO)cc1` [NONOXYNOL-9]: for the setting “[M+H]+”, the “collision cross section (N2)” value is 245.8 Å².
